Like-named read-outs stand apart in the source and are kept apart here.
Assays:
in vitro [1] = test: in vitro; design: species or system HB2, CCD841; conditions: human, hek293 cells
in vitro [2] = test: in vitro; design: species or system HB2, HEK293; conditions: human, ccd841 cells
BSA = target: T1, BSA (Bos taurus, UniProt P02769); design: Intact protein LC/MS covalent labelling, fragments in pools of five, 200 uM each, 4 °C; conditions: 24 h, 4 °C, pool of five; 200 µM; covalent
T1 construct: gene ALB

PCAF = target: T2, PCAF (Homo sapiens, UniProt Q92831); design: Intact protein LC/MS covalent labelling, fragments in pools of five, 200 uM each, 4 °C; conditions: 24 h, 4 °C, pool of five; 200 µM; covalent
T2 construct: gene KAT2B

OTUB2 (OTUB2A) = target: T3, OTUB2 (OTUB2A) (Homo sapiens, UniProt Q96DC9); design: Intact protein LC/MS covalent labelling, fragments in pools of five, 200 uM each, 4 °C; conditions: 24 h, 4 °C, pool of five; 200 µM; covalent
T3 construct: full length residues 1-234, E. coli BL21(DE3)-R3, His tag removed by TEV, construct 27312 Da
T3 sequence (Q96DC9 1-234): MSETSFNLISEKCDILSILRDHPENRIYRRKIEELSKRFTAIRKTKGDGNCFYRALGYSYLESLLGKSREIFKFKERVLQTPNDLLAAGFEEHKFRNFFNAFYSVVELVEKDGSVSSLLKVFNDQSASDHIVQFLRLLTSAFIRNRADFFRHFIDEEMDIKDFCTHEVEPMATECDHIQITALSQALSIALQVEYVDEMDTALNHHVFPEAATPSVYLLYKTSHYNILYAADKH

NUDT7 = target: T4, NUDT7 (Homo sapiens, UniProt P0C024); design: Intact protein LC/MS covalent labelling, fragments in pools of five, 200 uM each, 4 °C; conditions: 24 h, 4 °C, pool of five; 200 µM; covalent
T4 construct: residues 14-235, E. coli, pNIC28-Bsa4, N-terminal His6 tag removed by TEV, construct 26672 Da

NNMT (hNNMT) = target: T5, NNMT (hNNMT) (Homo sapiens, UniProt P40261); design: Intact protein LC/MS covalent labelling, fragments in pools of five, 200 uM each, 4 °C; conditions: 24 h, 4 °C, pool of five; 200 µM; covalent
T5 construct: wild type, N-terminal His6 tag kept (no cleavage described), E. coli, construct 31248 Da
T5 sequence (P40261 1-264): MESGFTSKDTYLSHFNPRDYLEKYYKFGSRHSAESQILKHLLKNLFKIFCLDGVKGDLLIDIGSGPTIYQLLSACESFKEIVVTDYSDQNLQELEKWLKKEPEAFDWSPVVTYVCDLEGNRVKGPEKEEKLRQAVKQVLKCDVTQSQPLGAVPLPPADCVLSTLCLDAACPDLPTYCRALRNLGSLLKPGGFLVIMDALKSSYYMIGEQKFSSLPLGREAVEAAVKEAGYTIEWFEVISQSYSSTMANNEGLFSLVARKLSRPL

in vitro [3] = test: in vitro; design: species or system CCD841, HEK293; conditions: human, hb2 cells, read-out: HB-2 Cells Viability (%)

T4 sequence (P0C024 14-235): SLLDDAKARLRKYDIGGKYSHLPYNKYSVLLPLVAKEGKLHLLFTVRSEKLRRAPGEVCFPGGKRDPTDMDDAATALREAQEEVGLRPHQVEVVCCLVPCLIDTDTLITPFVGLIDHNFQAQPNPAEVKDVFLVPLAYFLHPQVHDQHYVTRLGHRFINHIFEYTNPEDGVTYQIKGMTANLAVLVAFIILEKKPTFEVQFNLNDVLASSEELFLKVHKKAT
T1 sequence (P02769 whole entry, the tested form may be a part): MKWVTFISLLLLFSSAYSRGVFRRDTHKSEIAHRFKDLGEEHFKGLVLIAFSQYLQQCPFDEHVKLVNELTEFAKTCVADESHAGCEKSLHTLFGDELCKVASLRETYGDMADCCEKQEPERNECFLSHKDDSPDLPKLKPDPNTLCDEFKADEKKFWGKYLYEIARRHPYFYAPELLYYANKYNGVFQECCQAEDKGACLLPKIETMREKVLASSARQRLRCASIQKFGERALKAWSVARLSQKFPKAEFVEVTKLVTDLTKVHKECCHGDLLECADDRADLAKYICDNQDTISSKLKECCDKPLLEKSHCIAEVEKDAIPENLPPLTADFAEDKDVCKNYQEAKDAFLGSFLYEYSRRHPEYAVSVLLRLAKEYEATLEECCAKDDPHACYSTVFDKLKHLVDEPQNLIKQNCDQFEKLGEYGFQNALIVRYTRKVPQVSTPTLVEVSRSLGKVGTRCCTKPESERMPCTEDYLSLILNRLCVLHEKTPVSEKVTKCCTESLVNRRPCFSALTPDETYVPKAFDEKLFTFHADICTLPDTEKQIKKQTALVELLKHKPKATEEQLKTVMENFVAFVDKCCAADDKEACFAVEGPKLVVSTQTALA
T2 sequence (Q92831 whole entry, the tested form may be a part): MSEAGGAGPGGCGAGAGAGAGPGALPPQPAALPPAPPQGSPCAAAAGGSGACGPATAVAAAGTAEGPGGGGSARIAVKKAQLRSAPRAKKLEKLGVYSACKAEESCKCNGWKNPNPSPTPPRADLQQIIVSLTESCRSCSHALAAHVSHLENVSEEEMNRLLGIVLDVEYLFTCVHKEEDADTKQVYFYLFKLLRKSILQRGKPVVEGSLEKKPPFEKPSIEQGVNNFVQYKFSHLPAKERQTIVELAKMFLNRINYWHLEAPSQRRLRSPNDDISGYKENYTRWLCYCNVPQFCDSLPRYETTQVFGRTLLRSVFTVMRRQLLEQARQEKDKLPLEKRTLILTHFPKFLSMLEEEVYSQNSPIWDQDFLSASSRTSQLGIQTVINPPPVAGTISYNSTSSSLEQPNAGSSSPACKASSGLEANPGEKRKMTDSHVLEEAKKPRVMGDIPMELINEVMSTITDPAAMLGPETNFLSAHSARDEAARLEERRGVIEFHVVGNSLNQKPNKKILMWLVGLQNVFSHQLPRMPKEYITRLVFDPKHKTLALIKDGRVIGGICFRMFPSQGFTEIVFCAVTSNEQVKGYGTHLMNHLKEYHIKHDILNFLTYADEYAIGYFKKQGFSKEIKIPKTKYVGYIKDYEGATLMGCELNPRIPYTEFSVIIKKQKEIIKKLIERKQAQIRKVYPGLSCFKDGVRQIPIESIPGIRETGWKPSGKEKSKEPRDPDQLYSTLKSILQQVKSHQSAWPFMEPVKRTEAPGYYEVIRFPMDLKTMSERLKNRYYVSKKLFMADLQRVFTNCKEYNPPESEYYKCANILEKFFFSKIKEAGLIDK

| SMILES | viability at 48 h, 10 µM (in vitro [1]) [%] | viability at 48 h, 10 µM (in vitro [2]) [%] | BSA (BSA) | PCAF (PCAF) | OTUB2 (OTUB2 (OTUB2A)) | NUDT7 (NUDT7) | NNMT (NNMT (hNNMT)) | viability at 48 h, 10 µM (in vitro [3]) [%] |
| --- | --- | --- | --- | --- | --- | --- | --- | --- |
| Cc1nc(C2(NC(=O)CCl)CCCCC2)no1 [PCM-0102983] | 99.7 | 112 | 0 | 0 | 0 | 0.1 | 0 | 102 |
| CN(Cc1ccccc1)C(=O)CCl [PCM-0102984] | 55.2 | 91.6 | 0 | 0 | 0 | 0.11 | 0 | 78.6 |
| C=CC(=O)N1CCC(C(=O)c2cccs2)CC1 [PCM-0102989] | 102 | 97.9 | 0 | 0 | 0 | 0 | 0 | 97.7 |
| C=CC(=O)NC1CCCN(c2cc(C)nn2C)C1=O (centres unmarked) [PCM-0102991] | 94.5 | 113 | 0 | 0 | 0 | 0 | 0 | 98.2 |
| N#CC1(NC(=O)CCl)CCCCC1 [PCM-0102993] | 66 | 83.3 | 0 | 0 | 0 | 0.08 | 0 | 87.6 |
| Cc1cc(C)c(NC(=O)CCl)c(Cl)c1 [PCM-0102994] | 74.1 | 73.1 | 0 | 0 | 0 | 0.26 | 0.46 | 94 |
| CC(NC(=O)NC(=O)CCl)C1CC2CCC1C2 (centres unmarked) [PCM-0102997] | 91.4 | 116 | 0 | 0 | 0.05 | 0 | 0.23 | 98.1 |
| O=C(CCl)Nc1ccc(F)cc1 [PCM-0103002] | 35.5 | 71.8 | 0 | 0 | 0.3 | 0 | 0 | 68.5 |
| C=CC(=O)N1CCCN(C(=O)c2cc(Cl)cn2C)CC1 [PCM-0103003] | 96.7 | 101 | 0 | 0 | 0 | 0 | 0 | 105 |
| Cl.O=C(CCl)N1CCN(Cc2ccco2)CC1 [PCM-0103006] | 65.7 | 85 | 0 | 0 | 0 | 0 | 0 | 88.6 |
| CCc1sc(C(=O)NNC(=O)CCl)cc1C [PCM-0103009] | 73.2 | 68.3 | 0 | 0 | 1 | 0 | 0 | 70.4 |
| CCOC(=O)C1CCCN(C(=O)CCl)C1 (centres unmarked) [PCM-0103015] | 98.8 | 98.8 | 0 | 0 | 0.09 | 0 | 0.13 | 104 |
| CS(=O)(=O)c1ccc(F)c(NC(=O)CCl)c1 [PCM-0103018] | 24.3 | 53.6 | 0 | 0 | 0.16 | 0 | 0 | 57.6 |
| CC(C)N(C(=O)CCl)C(C)C [PCM-0103023] | 110 | 106 | 0 | 0 | 0 | 0 | 0 | 102 |
| Cc1ccc(NC(=O)CCl)c(F)c1 [PCM-0103028] | 29 | 58.4 | 0.18 | 0 | 0.14 | 0 | 0.23 | 42.3 |
| CC(NC(=O)CCl)c1ccc(F)cc1F (centres unmarked) [PCM-0103035] | 66.4 | 78.2 | 0 | 0 | 0.34 | 0.15 | 0.58 | 77.6 |
| Cl.O=C(CCl)Nc1ccc(Cl)cn1 [PCM-0103036] | 113 | 96.4 | 0.19 | 0 | 0 | 0 | 0.19 | 98.5 |
| CC(C)(C)n1ncc2c1CCCC2NC(=O)CCl.Cl (centres unmarked) [PCM-0103046] | 89.3 | 90.9 | 0 | 0 | 0.36 | 0 | 0 | 81.5 |
| O=C(CCl)NCc1cccc(F)c1 [PCM-0103047] | 88.1 | 69.7 | 0 | 0 | 0.43 | 0 | 0 | 83.7 |
| COC(=O)c1cccc(NC(=O)CCl)c1 [PCM-0103048] | 5.1 | 34.7 | 0 | 0 | 0.87 | 0 | 0.2 | 17.7 |
| O=C(CCl)NCc1cc(Br)cs1 [PCM-0103050] | 53.1 | 75.7 | 0 | 0 | 0.84 | 0.13 | 0 | 87 |
| Cl.O=C(CCl)NC1CCN(C2CC2)CC1 [PCM-0103055] | 92.7 | 83 | 0 | 0 | 0 | 0 | 0.23 | 98.2 |
| CC1(C)CCCN1C(=O)CCl [PCM-0103060] | 74.5 | 92.4 | 0 | 0 | 0 | 0 | 0 | 104 |
| O=C(CCl)N(C1CCCC1)C1CC1 [PCM-0103064] | 74 | 87.8 | 0 | 0 | 0 | 0 | 0 | 102 |
| O=C(CCl)NCC1CCC1 [PCM-0103065] | 104 | 108 | 0 | 0 | 0 | 0 | 0 | 104 |

From publication PMC6556873, “Rapid Covalent-Probe Discovery by Electrophile-Fragment Screening” (Journal of the American Chemical Society, 2019)
